Experimental data reported in PubChem BioAssay (NCI).
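Test compounds were applied to cells in 96-well plates for 48 hours at 5 doses. Abbreviation: GI50, concentration required for 50% inhibition of growth. TGI is the concentration that stops growth completely.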

Legend:
Assay in all cases: inhibition of tumour cell growth, NCI panel, 48 h
786-0 renal = system: 786-0 renal
A498 renal = system: A498 renal
A549 NSCLC = system: A549 NSCLC
ACHN renal = system: ACHN renal
BT-549 breast = system: BT-549 breast
CAKI-1 renal = system: CAKI-1 renal
CCRF-CEM leukemia = system: CCRF-CEM leukemia
COLO 205 colon = system: COLO 205 colon
DU-145 prostate = system: DU-145 prostate
EKVX NSCLC = system: EKVX NSCLC
HCC-2998 colon = system: HCC-2998 colon
HCT-116 colon = system: HCT-116 colon
HCT-15 colon = system: HCT-15 colon
HL-60(TB) leukemia = system: HL-60(TB) leukemia
HOP-62 NSCLC = system: HOP-62 NSCLC
HOP-92 NSCLC = system: HOP-92 NSCLC
HS 578T breast = system: HS 578T breast
HT29 colon = system: HT29 colon
IGROV1 ovarian = system: IGROV1 ovarian
K-562 leukemia = system: K-562 leukemia
KM12 colon = system: KM12 colon
LOX IMVI melanoma = system: LOX IMVI melanoma
M14 melanoma = system: M14 melanoma
MALME-3M melanoma = system: MALME-3M melanoma
MCF7 breast = system: MCF7 breast
MDA-MB-231 breast = system: MDA-MB-231 breast
MDA-MB-435 = system: MDA-MB-435
MOLT-4 leukemia = system: MOLT-4 leukemia
NCI-H226 lung = system: NCI-H226 lung
NCI-H23 lung = system: NCI-H23 lung
NCI-H460 lung = system: NCI-H460 lung
NCI-H522 lung = system: NCI-H522 lung
NCI/ADR-RES ovarian = system: NCI/ADR-RES ovarian
OVCAR-3 ovarian = system: OVCAR-3 ovarian
OVCAR-4 ovarian = system: OVCAR-4 ovarian
OVCAR-5 ovarian = system: OVCAR-5 ovarian
OVCAR-8 ovarian = system: OVCAR-8 ovarian
PC-3 prostate = system: PC-3 prostate
RPMI-8226 leukemia = system: RPMI-8226 leukemia
RXF 393 renal = system: RXF 393 renal
SF-268 CNS = system: SF-268 CNS
SF-295 CNS = system: SF-295 CNS
SF-539 CNS = system: SF-539 CNS
SK-MEL-2 melanoma = system: SK-MEL-2 melanoma
SK-MEL-28 melanoma = system: SK-MEL-28 melanoma
SK-MEL-5 melanoma = system: SK-MEL-5 melanoma
SK-OV-3 ovarian = system: SK-OV-3 ovarian
SN12C renal = system: SN12C renal
SNB-19 CNS = system: SNB-19 CNS
SNB-75 CNS = system: SNB-75 CNS
SW-620 colon = system: SW-620 colon
T-47D breast = system: T-47D breast
TK-10 renal = system: TK-10 renal
U251 CNS = system: U251 CNS
UACC-257 melanoma = system: UACC-257 melanoma
UACC-62 melanoma = system: UACC-62 melanoma
UO-31 renal = system: UO-31 renal

## c1ccc2nc(N/N=C3\CCCCC3C3CCCCC3)ccc2c1 (stereo not drawn)
786-0 renal
  GI50: 7.12 µM
  TGI: 21.6 µM
A498 renal
  GI50: 11.4 µM
  TGI: 27.9 µM
A549 NSCLC
  GI50: 6.26 µM
  TGI: 29.1 µM
ACHN renal
  GI50: 8.02 µM
  TGI: 20.8 µM
BT-549 breast
  GI50: 9.09 µM
  TGI: 22.1 µM
CAKI-1 renal
  GI50: 4.78 µM
  TGI: 25.3 µM
CCRF-CEM leukemia
  GI50: 2.83 µM
  TGI: 14 µM
COLO 205 colon
  GI50: 3.26 µM
  TGI: 12.7 µM
DU-145 prostate
  GI50: 11.9 µM
  TGI: 24.8 µM
EKVX NSCLC
  GI50: 5.22 µM
  TGI: 20.2 µM
HCC-2998 colon
  GI50: 3.46 µM
  TGI: 14 µM
HCT-116 colon
  GI50: 3.32 µM
  TGI: 13.5 µM
HCT-15 colon
  GI50: 3.52 µM
  TGI: 14.8 µM
HL-60(TB) leukemia
  GI50: 3.74 µM
  TGI: 25.6 µM
HOP-62 NSCLC
  GI50: 11.8 µM
  TGI: 25.7 µM
HOP-92 NSCLC
  GI50: 2.2 µM
  TGI: 10 µM
HS 578T breast
  GI50: 10.4 µM
  TGI: 30.9 µM
HT29 colon
  GI50: 3.7 µM
  TGI: 14.6 µM
IGROV1 ovarian
  GI50: 2.92 µM
  TGI: 15.4 µM
K-562 leukemia
  GI50: 4.85 µM
  TGI: > 100 µM
KM12 colon
  GI50: 4.27 µM
  TGI: 15.7 µM
LOX IMVI melanoma
  GI50: 3.25 µM
  TGI: 13.1 µM
M14 melanoma
  GI50: 10.3 µM
  TGI: 26.5 µM
MALME-3M melanoma
  GI50: 2.36 µM
  TGI: 12.9 µM
MCF7 breast
  GI50: 2.46 µM
  TGI: 11.7 µM
MDA-MB-231 breast
  GI50: 5.49 µM
  TGI: 20.5 µM
MDA-MB-435
  GI50: 6.95 µM
  TGI: 21.3 µM
MOLT-4 leukemia
  GI50: 3.2 µM
  TGI: 17.1 µM
NCI-H226 lung
  GI50: 6.3 µM
  TGI: 22.9 µM
NCI-H23 lung
  GI50: 3.89 µM
  TGI: 17.3 µM
NCI-H460 lung
  GI50: 3.84 µM
  TGI: 16.5 µM
NCI-H522 lung
  GI50: 4.97 µM
  TGI: 20.4 µM
NCI/ADR-RES ovarian
  GI50: 5.29 µM
  TGI: 21 µM
OVCAR-3 ovarian
  GI50: 13.9 µM
  TGI: 27 µM
OVCAR-4 ovarian
  GI50: 3.9 µM
  TGI: 22.8 µM
OVCAR-5 ovarian
  GI50: 8.27 µM
  TGI: 21.5 µM
OVCAR-8 ovarian
  GI50: 11.2 µM
  TGI: 29 µM
PC-3 prostate
  GI50: 3.07 µM
  TGI: 17.6 µM
RPMI-8226 leukemia
  GI50: 2.02 µM
  TGI: 4.76 µM
RXF 393 renal
  GI50: 9.21 µM
  TGI: 26.9 µM
SF-268 CNS
  GI50: 10.8 µM
  TGI: 24.9 µM
SF-295 CNS
  GI50: 2.4 µM
  TGI: 11.8 µM
SF-539 CNS
  GI50: 7.69 µM
  TGI: 21.4 µM
SK-MEL-2 melanoma
  GI50: 3.48 µM
  TGI: 16.6 µM
SK-MEL-28 melanoma
  GI50: 10.9 µM
  TGI: 24.9 µM
SK-MEL-5 melanoma
  GI50: 2.58 µM
  TGI: 10.4 µM
SK-OV-3 ovarian
  GI50: 14.8 µM
  TGI: 34.3 µM
SN12C renal
  GI50: 6.54 µM
  TGI: 21.1 µM
SNB-19 CNS
  GI50: 11.4 µM
  TGI: 24.6 µM
SNB-75 CNS
  GI50: 11.1 µM
  TGI: 30.9 µM
SW-620 colon
  GI50: 4.12 µM
  TGI: 16.3 µM
T-47D breast
  GI50: 4.33 µM
  TGI: 21.8 µM
TK-10 renal
  GI50: 6.72 µM
  TGI: 19.5 µM
U251 CNS
  GI50: 6.44 µM
  TGI: 20.8 µM
UACC-257 melanoma
  GI50: 10.3 µM
  TGI: 27.5 µM
UACC-62 melanoma
  GI50: 3.89 µM
  TGI: 15.6 µM
UO-31 renal
  GI50: 2.89 µM
  TGI: 14.4 µM

## O=C1C=CC2(O)OC/C(=C\c3ccccc3)C(O)=C2C1=O (stereo not drawn)
786-0 renal
  GI50: 1.3 µM
  TGI: 3.04 µM
A498 renal
  GI50: 10.8 µM
  TGI: 22.8 µM
A549 NSCLC
  GI50: 2.52 µM
  TGI: 6.88 µM
ACHN renal
  GI50: 1.53 µM
  TGI: 2.92 µM
BT-549 breast
  GI50: 2.02 µM
  TGI: 6.98 µM
CAKI-1 renal
  GI50: 1.59 µM
  TGI: 3.2 µM
CCRF-CEM leukemia
  GI50: 0.534 µM
  TGI: 25.9 µM
COLO 205 colon
  GI50: 2.63 µM
  TGI: 6.33 µM
DU-145 prostate
  GI50: 2.51 µM
  TGI: 9.36 µM
EKVX NSCLC
  GI50: 1.9 µM
  TGI: 5.43 µM
HCC-2998 colon
  GI50: 1.82 µM
  TGI: 3.32 µM
HCT-116 colon
  GI50: 1.88 µM
  TGI: 4.08 µM
HCT-15 colon
  GI50: 0.868 µM
  TGI: 3.38 µM
HL-60(TB) leukemia
  GI50: 0.517 µM
  TGI: 7.76 µM
HOP-62 NSCLC
  GI50: 2.89 µM
  TGI: 9.32 µM
HOP-92 NSCLC
  GI50: 1.27 µM
  TGI: 3.59 µM
HS 578T breast
  GI50: 0.259 µM
  TGI: 3 µM
HT29 colon
  GI50: 3.62 µM
  TGI: 11.8 µM
IGROV1 ovarian
  GI50: 1.83 µM
  TGI: 9.7 µM
K-562 leukemia
  GI50: 0.476 µM
  TGI: > 100 µM
KM12 colon
  GI50: 1.4 µM
  TGI: 3.02 µM
LOX IMVI melanoma
  GI50: 1.4 µM
  TGI: 2.76 µM
M14 melanoma
  GI50: 2.95 µM
  TGI: 11.7 µM
MALME-3M melanoma
  GI50: 1.51 µM
  TGI: 5.15 µM
MCF7 breast
  GI50: 1.22 µM
  TGI: 10.2 µM
MDA-MB-231 breast
  GI50: 0.648 µM
  TGI: 3.51 µM
MDA-MB-435
  GI50: 1.95 µM
  TGI: 4.74 µM
MOLT-4 leukemia
  GI50: 0.791 µM
  TGI: 14.4 µM
NCI-H226 lung
  GI50: 3.11 µM
  TGI: 31.4 µM
NCI-H23 lung
  GI50: 1.65 µM
  TGI: 3.38 µM
NCI-H460 lung
  GI50: 1.98 µM
  TGI: 4.32 µM
NCI-H522 lung
  GI50: 0.196 µM
  TGI: 0.535 µM
NCI/ADR-RES ovarian
  GI50: 2.57 µM
  TGI: 12.7 µM
OVCAR-3 ovarian
  GI50: 1.14 µM
  TGI: 3.23 µM
OVCAR-4 ovarian
  GI50: 2.37 µM
  TGI: 8.87 µM
OVCAR-5 ovarian
  GI50: 2.17 µM
  TGI: 4.5 µM
OVCAR-8 ovarian
  GI50: 2.71 µM
  TGI: 10.3 µM
PC-3 prostate
  GI50: 1.35 µM
  TGI: 4.19 µM
RPMI-8226 leukemia
  GI50: 0.285 µM
  TGI: 0.838 µM
RXF 393 renal
  GI50: 1.5 µM
  TGI: 2.95 µM
SF-268 CNS
  GI50: 2.1 µM
  TGI: 7.08 µM
SF-295 CNS
  GI50: 2.58 µM
  TGI: 6.32 µM
SF-539 CNS
  GI50: 1.24 µM
  TGI: 2.87 µM
SK-MEL-2 melanoma
  GI50: 2.02 µM
  TGI: 5.77 µM
SK-MEL-28 melanoma
  GI50: 2.59 µM
  TGI: 6.41 µM
SK-MEL-5 melanoma
  GI50: 1.57 µM
  TGI: 2.98 µM
SK-OV-3 ovarian
  GI50: 15.2 µM
  TGI: > 100 µM
SN12C renal
  GI50: 1.21 µM
  TGI: 8.38 µM
SNB-19 CNS
  GI50: 2.65 µM
  TGI: 9.7 µM
SNB-75 CNS
  GI50: 1.95 µM
  TGI: 9.68 µM
SW-620 colon
  GI50: 1.6 µM
  TGI: 3.68 µM
T-47D breast
  GI50: 2.47 µM
  TGI: 10.6 µM
TK-10 renal
  GI50: 2.99 µM
  TGI: 7.84 µM
U251 CNS
  GI50: 1.39 µM
  TGI: 3.03 µM
UACC-257 melanoma
  GI50: 1.82 µM
  TGI: 4.5 µM
UACC-62 melanoma
  GI50: 1.51 µM
  TGI: 3.76 µM
UO-31 renal
  GI50: 0.722 µM
  TGI: 2.03 µM
